From paper PMC12410356 (International Journal for Parasitology: Drugs and Drug …, 2025)

What was measured:
[1] = tested on: E. multilocularis metacestode vesicles; assay: Metacestode vesicle viability assay (ATP, CellTiter-Glo); assay type: cell-based, Echinococcus multilocularis
Protocol: Viability was assessed after 12 days using the same metacestode vesicles as for the PGI release assay. Triton X-100 was added to each well to a final concentration of 0.1 %. Subsequently the metacestode vesicles were broken mechanically and 50 μL of the supernatant was mixed with 50 μL of CellTiter-Glo® buffer (Promega, Dübendorf, Switzerland). Measurements were performed on a HIDEX Sense microplate reader.

[2] = tested on: E. multilocularis metacestode vesicles; assay: Phosphoglucose isomerase (PGI) release assay (damage-marker release) on metacestode vesicles; assay type: cell-based, Echinococcus multilocularis; conditions: 10 μM; for PGI d5 (relative PGI release): 5 days; for PGI d12 (relative PGI release): 12 days
[3] = overview screen, 10 μM, singlets, 12 days, relative to DMSO control
[4] = overview screen, singlets, relative to 0.1 % Triton X-100, DMSO subtracted
[5] = confirmation screen, 10 μM, triplicates, mean, 12 days
[6] = confirmation screen, triplicates, mean

Structure (SMILES) | Viability d12 (relative viability) [1, 3] [%] | PGI d5 (relative PGI release) [2, 4] [%] | PGI d12 (relative PGI release) [2, 4] [%] | Viability d12 (relative viability) ([1]; 10 µM) [%] | Viability d12 (relative viability) [1, 5] [%] | PGI d5 (relative PGI release) [2, 6] [%] | PGI d12 (relative PGI release) [2, 6] [%]
O=C1c2cccc3cccc(c23)C(=O)N1CC1CO1 (stereo not drawn) [MMV1634360] | 25.8841 | -2.544 | 17.7299 | – | – | – | –
N[C@H]1CCC[C@H]1C(=O)O [MMV1634361] | 78.6856 | 0.2611 | 0.2526 | – | – | – | –
C[C@@H](c1nc(-c2ccc(C#N)cc2)cs1)[C@](O)(Cn1cncn1)c1ccc(F)cc1F [MMV1634362] | – | -1.682 | -23.6483 | 103.703 | – | – | –
OB1OCc2cc(Cl)ccc21 [MMV1634363] | 101.699 | -0.4278 | -12.2339 | – | – | – | –
CCc1cc(Nc2cc(=O)n(CCN3CCN(C(=O)c4ccccc4)CC3)c(=O)[nH]2)ccc1C [MMV1634383] | 104.622 | 0.8629 | 52.997 | – | – | – | –
CCN(CC)S(=O)(=O)c1ccc(Cl)c(C(=O)Nc2sc3c(c2C#N)CCCC3)c1 [MMV1634384] | 106.793 | 0.5897 | 3.142 | – | – | – | –
Nc1ccc(-c2nc3cc(C(F)(F)F)ccc3n2C23CC4CC(CC(C4)C2)C3)cc1 [MMV1634385] | 100.869 | 1.378 | 1.206 | – | – | – | –
O[C@@](Cn1cnnn1)(c1ccc(F)cc1F)C(F)(F)c1ccc(-c2ccc(OCC(F)(F)F)cc2)cn1 [MMV1634386] | 107.711 | -2.798 | -27.2627 | – | – | – | –
CC(C)(C)c1ccc(OCCn2nc(C(=O)O)c3ccccc3c2=O)cc1 [MMV1634387] | 144.45 | -1.414 | -12.4336 | – | – | – | –
CC(C)N(c1cc(-c2ccccc2)sc1C(=O)O)C(=O)[C@H]1CC[C@H](C)CC1 [MMV1634388] | 13.9085 | 1.026 | 40.2559 | – | 128.08 | 0.59 | 0.29
CCNC(=O)Nc1cc2c(-c3ccnc(C)c3)ccc(CNC(=O)OC)c2cn1 [MMV1634390] | 29.4745 | 1.116 | -26.1278 | – | – | – | –
Cn1cc(NC(=O)c2cc(NC(=O)c3ccc(/C=C/c4cnc5ccccc5c4)cc3)cn2C)cc1C(=O)NCCN1CCOCC1 [MMV1634391] | 70.2948 | -0.2305 | 21.1965 | – | – | – | –
CCCCc1ccc(-c2nc(C)c(C(=O)OC)s2)cc1 [MMV1634392] | 152.475 | 0.3728 | 0.05977 | – | – | – | –
CC(C)(C)c1ccc(C(Cn2cccc(C(F)(F)F)c2=O)NC2Cc3ccccc3C2)cc1 (stereo not drawn) [MMV1634393] | 102.314 | -0.3467 | 0.3021 | – | – | – | –
Cc1ccc(N2CCC(CCOc3ccc(S(C)(=O)=O)cc3)CC2)nn1 [MMV1634394] | 249.705 | 0.369 | -19.1494 | – | – | – | –
CCc1c(O)nc2ccc(F)cc2c1OCC1CCC1 [MMV1634395] | 119.991 | -0.4952 | -17.3568 | – | – | – | –
O=C(c1nc2c(C(F)(F)F)cc(C3CC3)cn2c1Cl)N1CCN([C@H]2CC[C@H](O)CC2)C(=O)C1 [MMV1634396] | 113.417 | 0.0006202 | 0.1204 | – | – | – | –

Structure (SMILES) | Viability d12 (relative viability) [1, 3] [%] | PGI d5 (relative PGI release) [2, 4] [%] | PGI d12 (relative PGI release) [2, 4] [%] | Viability d12 (relative viability) ([1]; 10 µM) [%] | Viability d12 (relative viability) [1, 5] [%] | PGI d5 (relative PGI release) [2, 6] [%] | PGI d12 (relative PGI release) [2, 6] [%]
COc1ccc(CNC(=O)C2CCN(C(C)c3cccc4ccccc34)CC2)cc1 (stereo not drawn) [MMV1634397] | 68.3168 | 1.669 | -0.9153 | – | – | – | –
CCOc1ccc(/C=N/NC(=O)C2CC2c2ccc(C(C)(C)C)cc2)cc1OCC (stereo not drawn) [MMV1634398] | 324.092 | 0.06885 | 0.3627 | – | – | – | –
Cc1nc2ccc(Oc3ccccc3)cc2c2c1CCN2CCc1ccccc1 [MMV1634399] | 23.583 | 25.5463 | 44.1623 | – | 116.13 | 0.85 | 15.15
Cc1ccc(C)c(OCCCCCCN2C[C@H](O)[C@@H](O)[C@H](O)[C@H]2CO)c1 [MMV1634401] | 26.5643 | 8.592 | 62.8936 | – | 146.24 | 1.51 | 2.13
NC(N)=NCCCCC(=O)Nc1cc(C(F)(F)F)cc(NC(=O)c2cc(C(=O)Nc3cc(C(F)(F)F)cc(NC(=O)CCCCN=C(N)N)c3O[C@@H]3CCNC3)ncn2)c1O[C@@H]1CCNC1 [MMV1634402] | 96.1157 | -1.176 | 3.242 | – | – | – | –
CS(=O)(=O)c1ccc(Oc2ccc(Cl)cc2)cc1 [MMV1634404] | 57.7676 | -0.3308 | -18.6197 | – | – | – | –
O=C(/C(=C/c1ccc(Cl)cc1Cl)n1ccnc1)c1ccc(Cl)cc1 [MMV1634491] | 14.6955 | 24.947 | 25.566 | – | 83.69 | 0.16 | 5.15
Clc1cc(Cl)c2c(c1)CCc1ccccc1C2n1ccnc1 (stereo not drawn) [MMV1634492] | 206.655 | -1.087 | -25.0724 | – | – | – | –
Cc1ccc(Oc2ccccc2-c2csc(N=C3NCCCN3)n2)c(C)c1 [MMV1634493] | 36.7387 | 4.111 | 7.6311 | – | – | – | –
CNCC(=O)OCc1cccnc1N(C)C(=O)OC(C)[n+]1cnn(C[C@](O)(c2cc(F)ccc2F)[C@@H](C)c2nc(-c3ccc(C#N)cc3)cs2)c1 (stereo partly drawn) [MMV1634494] | 42.7505 | -2.972 | -24.8266 | – | – | – | –
CCc1cc(CCCOc2c(C)cc(-c3noc(C(F)(F)F)n3)cc2C)on1 [MMV1634556] | 121.169 | 0.6182 | -18.063 | – | – | – | –
COc1cc(C2C3=C(CC(C)(C)CC3=O)Nc3ccccc3N2C(C)=O)ccc1OCc1ccccc1 (stereo not drawn) [MMV1634557] | 141.611 | -2.659 | -23.764 | – | – | – | –
O=[N+]([O-])/C(Br)=C/c1ccc(Br)o1 [MMV1645051] | 16.4489 | 1.139 | -20.9736 | – | – | – | –
Nc1nc(O)c(Br)c(-c2cccc(Cl)c2)n1 [MMV1645152] | 465.171 | -0.1718 | -17.4315 | – | – | – | –
CCc1nc2ccccn2c1C(=O)NCc1ccccc1 [MMV1663457] | 46.6749 | -2.34 | -12.7903 | – | – | – | –
O=C(NCc1ccc(F)cc1)c1c(O)c2ncccc2[nH]c1=O [MMV1782097] | 171.617 | 0.7945 | -0.6563 | – | – | – | –
CCCCN1C[C@H](O)[C@@H](O)[C@H](O)[C@H]1CO [MMV1782098] | 82.1234 | -0.9049 | -0.1991 | – | – | – | –
